# Reference: ChEMBL document CHEMBL3885881, “DrugMatrix”
# Organism: Rattus norvegicus
# Experiment: DrugMatrix - Regimen: Daily Repeat
# Assay type: toxicity, organism-based, Sprague-Dawley
# Parameters: regimen Daily Repeat, gender Male, age 6-8 weeks
# Conditions: in vivo, po, route oral GAVAGE, vehicle .5 % CMC; for ABSOLUTE BASOPHIL / ABSOLUTE EOSINOPHIL / ABSOLUTE LYMPHOCYTE / ABSOLUTE MONOCYTE / ABSOLUTE SEGMENTED NEUTROPHIL / BASOPHIL / EOSINOPHIL / ERYTHROCYTE COUNT / HEMATOCRIT / HEMOGLOBIN / LEUKOCYTE COUNT / LYMPHOCYTE / MEAN CORPUSCULAR HEMOGLOBIN / MEAN CORPUSCULAR HEMOGLOBIN CONCENTRATION / MEAN CORPUSCULAR VOLUME / MONOCYTE / NEUTROPHIL / NUCLEATED RED BLOOD CELLS / PLATELET COUNT: tissue Blood; for ALANINE AMINOTRANSFERASE / ALBUMIN / ALKALINE PHOSPHATASE / ASPARTATE AMINOTRANSFERASE / BLOOD UREA NITROGEN / CARBON DIOXIDE / CHLORIDE / CHOLESTEROL / CREATINE PHOSPHOKINASE / CREATININE / GLUCOSE / LACTATE DEHYDROGENASE / LIPASE / PHOSPHORUS / POTASSIUM / SODIUM / TOTAL BILIRUBIN / TOTAL PROTEIN / URIC ACID: tissue Plasma
# [1] = 75 mg/kg, 120 h, dose level High, time 5 day
# [2] = […], 72 h, dose 7.5 mg/Kg, dose level Low, time 3 day
# [3] = […], 120 h, dose 7.5 mg/Kg, dose level Low, time 5 day
smiles,measurement,setting,value
Cc1ccc(/N=C/N(C)/C=N/c2ccc(C)cc2C)c(C)c1 [AMITRAZ],ABSOLUTE BASOPHIL,[1],0 CELLS/uL
same,ABSOLUTE EOSINOPHIL,[1],78.67 CELLS/uL
same,ABSOLUTE LYMPHOCYTE,[1],10570.33 CELLS/uL
same,ABSOLUTE MONOCYTE,[1],41.33 CELLS/uL
same,ABSOLUTE SEGMENTED NEUTROPHIL,[1],1409.67 CELLS/uL
same,BASOPHIL,[1],0%
same,EOSINOPHIL,[1],0.67%
same,ERYTHROCYTE COUNT,[1],6.55 x10E6/uL
same,HEMATOCRIT,[1],40.27%
same,HEMOGLOBIN,[1],16.2 G/DL
same,LEUKOCYTE COUNT,[1],12.1 x10E3/uL
same,LYMPHOCYTE,[1],87.33%
same,MEAN CORPUSCULAR HEMOGLOBIN,[1],24.73 pg
same,MEAN CORPUSCULAR HEMOGLOBIN CONCENTRATION,[1],40.2 G/DL
same,MEAN CORPUSCULAR VOLUME,[1],61.53 fL
same,MONOCYTE,[1],0.33%
same,NEUTROPHIL,[1],11.67%
same,NUCLEATED RED BLOOD CELLS,[1],0 /100WBC
same,PLATELET COUNT,[1],1330 x10E3/uL
same,ALANINE AMINOTRANSFERASE,[1],42.33 u/L
same,ALBUMIN,[1],4.3 G/DL
same,ALKALINE PHOSPHATASE,[1],203.33 u/L
same,ASPARTATE AMINOTRANSFERASE,[1],91.33 u/L
same,BLOOD UREA NITROGEN,[1],18.67 mg/dL
same,CARBON DIOXIDE,[1],21.67 mmol/L
same,CHLORIDE,[1],104.33 MEQ/L
same,CHOLESTEROL,[1],74 mg/dL
same,CREATINE PHOSPHOKINASE,[1],460.67 u/L
same,CREATININE,[1],0.26 mg/dL
same,GLUCOSE,[1],172 mg/dL
same,LACTATE DEHYDROGENASE,[1],250.67 u/L
same,LIPASE,[1],11.67 u/L
same,PHOSPHORUS,[1],15.2 mg/dL
same,POTASSIUM,[1],7.47 MEQ/L
same,SODIUM,[1],148.4 MEQ/L
same,TOTAL BILIRUBIN,[1],0.2 mg/dL
same,TOTAL PROTEIN,[1],6.17 G/DL
same,URIC ACID,[1],2.83 mg/dL
same,ABSOLUTE BASOPHIL,[2],0 CELLS/uL
same,ABSOLUTE EOSINOPHIL,[2],136 CELLS/uL
same,ABSOLUTE LYMPHOCYTE,[2],19510 CELLS/uL
same,ABSOLUTE MONOCYTE,[2],209.33 CELLS/uL
same,ABSOLUTE SEGMENTED NEUTROPHIL,[2],1444.67 CELLS/uL
same,BASOPHIL,[2],0%
same,EOSINOPHIL,[2],0.67%
same,ERYTHROCYTE COUNT,[2],5.3 x10E6/uL
same,HEMATOCRIT,[2],33.37%
same,HEMOGLOBIN,[2],13.33 G/DL
same,LEUKOCYTE COUNT,[2],21.3 x10E3/uL
same,LYMPHOCYTE,[2],91.33%
same,MEAN CORPUSCULAR HEMOGLOBIN,[2],25.17 pg
same,MEAN CORPUSCULAR HEMOGLOBIN CONCENTRATION,[2],39.97 G/DL
same,MEAN CORPUSCULAR VOLUME,[2],63.07 fL
same,MONOCYTE,[2],1%
same,NEUTROPHIL,[2],7%
same,NUCLEATED RED BLOOD CELLS,[2],0.33 /100WBC
same,PLATELET COUNT,[2],1400.67 x10E3/uL
same,ALANINE AMINOTRANSFERASE,[2],46.33 u/L
same,ALBUMIN,[2],4.13 G/DL
same,ALKALINE PHOSPHATASE,[2],272 u/L
same,ASPARTATE AMINOTRANSFERASE,[2],87.67 u/L
same,BLOOD UREA NITROGEN,[2],17.33 mg/dL
same,CARBON DIOXIDE,[2],25.33 mmol/L
same,CHLORIDE,[2],103.33 MEQ/L
same,CHOLESTEROL,[2],75.67 mg/dL
same,CREATINE PHOSPHOKINASE,[2],199.33 u/L
same,CREATININE,[2],0.22 mg/dL
same,GLUCOSE,[2],185.67 mg/dL
same,LACTATE DEHYDROGENASE,[2],127 u/L
same,LIPASE,[2],8.67 u/L
same,PHOSPHORUS,[2],11.97 mg/dL
same,POTASSIUM,[2],6.06 MEQ/L
same,SODIUM,[2],144.17 MEQ/L
same,TOTAL BILIRUBIN,[2],0.23 mg/dL
same,TOTAL PROTEIN,[2],5.7 G/DL
same,URIC ACID,[2],2.07 mg/dL
same,ABSOLUTE BASOPHIL,[3],0 CELLS/uL
same,ABSOLUTE EOSINOPHIL,[3],0 CELLS/uL
same,ABSOLUTE LYMPHOCYTE,[3],13348 CELLS/uL
same,ABSOLUTE MONOCYTE,[3],98 CELLS/uL
same,ABSOLUTE SEGMENTED NEUTROPHIL,[3],1187.33 CELLS/uL
same,BASOPHIL,[3],0%
same,EOSINOPHIL,[3],0%
same,ERYTHROCYTE COUNT,[3],5.41 x10E6/uL
same,HEMATOCRIT,[3],34.03%
same,HEMOGLOBIN,[3],13.6 G/DL
same,LEUKOCYTE COUNT,[3],14.63 x10E3/uL
same,LYMPHOCYTE,[3],91.33%
same,MEAN CORPUSCULAR HEMOGLOBIN,[3],25.17 pg
same,MEAN CORPUSCULAR HEMOGLOBIN CONCENTRATION,[3],39.93 G/DL
same,MEAN CORPUSCULAR VOLUME,[3],63.03 fL
same,MONOCYTE,[3],0.67%
same,NEUTROPHIL,[3],8%
same,NUCLEATED RED BLOOD CELLS,[3],0.33 /100WBC
same,PLATELET COUNT,[3],1467.33 x10E3/uL
same,ALANINE AMINOTRANSFERASE,[3],52.67 u/L
same,ALBUMIN,[3],4.13 G/DL
same,ALKALINE PHOSPHATASE,[3],370.67 u/L
same,ASPARTATE AMINOTRANSFERASE,[3],78.67 u/L
same,BLOOD UREA NITROGEN,[3],18 mg/dL
same,CARBON DIOXIDE,[3],30.67 mmol/L
same,CHLORIDE,[3],99.67 MEQ/L
same,CHOLESTEROL,[3],63 mg/dL
same,CREATINE PHOSPHOKINASE,[3],265.67 u/L
same,CREATININE,[3],0.18 mg/dL
same,GLUCOSE,[3],137.33 mg/dL
same,LACTATE DEHYDROGENASE,[3],130 u/L
same,LIPASE,[3],9 u/L
same,PHOSPHORUS,[3],11.77 mg/dL
same,POTASSIUM,[3],6.67 MEQ/L
same,SODIUM,[3],143.1 MEQ/L
same,TOTAL BILIRUBIN,[3],0.2 mg/dL
same,TOTAL PROTEIN,[3],5.9 G/DL
same,URIC ACID,[3],1.83 mg/dL
